Assay results from patent publication US20240092790A1, “DIHYDROFUROPYRIDINE DERIVATIVES AS RHO- KINASE INHIBITORS” (CHIESI FARMACEUTICI S.P.A., priority 2020, published 2024).

How the values were obtained:
Type in all cases: biochemical
ROCK2 = ROCK2 (Homo sapiens, UniProt O75116); assay: In vitro inhibitory activity assay ROCK2 (ADP-Glo); details: ATP 200 μM, Cheng-Prusoff; read-out: ROCK2 (Ki, range of activity)
Method: (§1) In Vitro Inhibitory Activity Assay Description ROCK1 and ROCK2
(§2) The effectiveness of compounds of the present invention to inhibit Rho kinase activity can be determined in a 10 μl assay containing 40 mM Tris pH7.5, 20 mM MgCl2 0.1 mg/mL BSA, 50 μM DTT and 2.5 μM peptide substrate (Myelin Basic Protein) using an ADP-Glo kit (Promega). Compounds were dissolved in DMSO such that the final concentration of DMSO was 1% in the assay. All reactions/incubations are performed at 25° C. Compound (2 ul) and either Rho kinase 1 or 2 (4 μl) were mixed and incubated for 30 mins. Reactions were initiated by addition of ATP (4 μl) such that the final concentration of ATP in the assay was 200 μM. After a 1 hour incubation 10 μl of ADP-Glo Reagent was added and after a further 1 hour incubation 20 ul of Kinase Detection Buffer was added and the mixture incubated for a further 45 minutes. The luminescent signal was measured on a luminometer. […] Compounds were tested in dose-response format and the inhibition of kinase activity was calculated at each concentration of compound. To determine the IC50 (concentration of compound required to inhibit 50% of the enzyme activity) data were fit to a plot of % inhibition vs Log 10 compound concentration using a sigmoidal fit with a variable slope and fixing the maximum to 100% and the minimum to 0%. To determine the Ki values the Cheng-Prusoff equation was utilized (Ki=IC50/(1+[S]/Km).

ROCK1 = ROCK1 (Homo sapiens, UniProt Q13464); assay: In vitro inhibitory activity assay ROCK1 (ADP-Glo); details: ATP 200 μM, Cheng-Prusoff; read-out: ROCK 1 (Ki, range of activity)
Chain of ROCK1 (Q13464 whole entry): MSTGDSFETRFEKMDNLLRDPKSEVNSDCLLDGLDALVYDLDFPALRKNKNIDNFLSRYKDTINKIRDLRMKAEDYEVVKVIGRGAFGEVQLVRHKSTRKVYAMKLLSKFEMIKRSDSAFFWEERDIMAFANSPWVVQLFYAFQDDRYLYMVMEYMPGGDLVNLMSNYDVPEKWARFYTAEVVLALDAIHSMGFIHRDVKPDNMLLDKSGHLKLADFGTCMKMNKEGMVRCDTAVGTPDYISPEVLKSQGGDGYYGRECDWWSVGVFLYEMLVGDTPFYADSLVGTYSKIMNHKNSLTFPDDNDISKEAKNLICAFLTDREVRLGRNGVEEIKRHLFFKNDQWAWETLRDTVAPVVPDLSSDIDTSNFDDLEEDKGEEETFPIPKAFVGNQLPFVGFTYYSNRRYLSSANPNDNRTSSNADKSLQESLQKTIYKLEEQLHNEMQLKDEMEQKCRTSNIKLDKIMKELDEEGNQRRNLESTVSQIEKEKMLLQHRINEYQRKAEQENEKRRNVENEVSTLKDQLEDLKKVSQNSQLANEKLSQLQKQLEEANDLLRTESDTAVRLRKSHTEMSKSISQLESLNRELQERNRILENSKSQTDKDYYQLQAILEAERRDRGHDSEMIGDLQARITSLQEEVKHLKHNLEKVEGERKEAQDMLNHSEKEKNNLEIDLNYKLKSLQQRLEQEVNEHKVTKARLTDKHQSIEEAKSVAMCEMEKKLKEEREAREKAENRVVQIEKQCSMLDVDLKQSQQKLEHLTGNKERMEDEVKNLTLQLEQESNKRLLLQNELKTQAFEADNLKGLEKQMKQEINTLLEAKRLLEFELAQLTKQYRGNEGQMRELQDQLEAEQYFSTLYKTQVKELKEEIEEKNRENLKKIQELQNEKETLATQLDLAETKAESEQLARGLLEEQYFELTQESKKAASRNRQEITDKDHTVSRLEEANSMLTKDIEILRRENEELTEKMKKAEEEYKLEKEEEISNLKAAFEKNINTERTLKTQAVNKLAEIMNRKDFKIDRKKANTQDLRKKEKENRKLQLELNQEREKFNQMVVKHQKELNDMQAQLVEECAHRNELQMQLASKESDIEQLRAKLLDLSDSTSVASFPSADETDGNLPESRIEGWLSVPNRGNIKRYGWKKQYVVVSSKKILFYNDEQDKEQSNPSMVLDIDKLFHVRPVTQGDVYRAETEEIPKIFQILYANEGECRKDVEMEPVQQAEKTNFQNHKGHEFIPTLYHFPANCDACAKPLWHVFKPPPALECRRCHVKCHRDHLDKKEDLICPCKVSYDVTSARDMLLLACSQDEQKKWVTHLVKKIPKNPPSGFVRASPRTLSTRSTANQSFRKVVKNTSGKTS
Method: as §1, §2

PKA = PKA (Homo sapiens, UniProt P17612); assay: In vitro inhibitory activity assay for PKA (ADP-Glo), reported as selectivity ratio vs ROCK2; details: Ki value for PKA divided by Ki value of ROCK2
Method: In Vitro Inhibitory Activity Assay Description for PKA
The effectiveness of compounds of the present invention to inhibit PKA activity can be determined in a 10 μl assay containing 40 mM Tris pH7.5, 20 mM MgCl2 0.1 mg/ml BSA, 50 μM DTT and 260 μM peptide substrate (kemptide) using an ADP-Glo kit (Promega). Compounds were dissolved in DMSO such that the final concentration of DMSO was 1% in the assay. All reactions/incubations are performed at 25° C. Compound and PKA enzyme (6 μl) were mixed and incubated for 30 mins. Reactions were initiated by addition of ATP (4 μl) such that the final concentration of ATP in the assay was 10 μM. After a 30 minute incubation 10p of ADP-Glo Reagent was added and after a further 1 hour incubation 20 μl of Kinase Detection Buffer was added and the mixture incubated for a further 45 minutes. The luminescent signal was measured on a luminometer. […] Compounds were tested in dose-response format and the inhibition of kinase activity was calculated at each concentration of compound. To determine the IC50 (concentration of compound required to inhibit 50% of the enzyme activity) data were fit to a plot of % inhibition vs Log10 compound concentration using a sigmoidal fit with a variable slope and fixing the maximum to 100% and the minimum to 0%. To determine the Ki values the Cheng-Prusoff equation was utilized (Ki=IC50/(1+[S]/Km).
In vitro inhibitory activities for PKA were reported as selectivity ratio vs. ROCK-2.

Chain of ROCK2 (O75116 whole entry): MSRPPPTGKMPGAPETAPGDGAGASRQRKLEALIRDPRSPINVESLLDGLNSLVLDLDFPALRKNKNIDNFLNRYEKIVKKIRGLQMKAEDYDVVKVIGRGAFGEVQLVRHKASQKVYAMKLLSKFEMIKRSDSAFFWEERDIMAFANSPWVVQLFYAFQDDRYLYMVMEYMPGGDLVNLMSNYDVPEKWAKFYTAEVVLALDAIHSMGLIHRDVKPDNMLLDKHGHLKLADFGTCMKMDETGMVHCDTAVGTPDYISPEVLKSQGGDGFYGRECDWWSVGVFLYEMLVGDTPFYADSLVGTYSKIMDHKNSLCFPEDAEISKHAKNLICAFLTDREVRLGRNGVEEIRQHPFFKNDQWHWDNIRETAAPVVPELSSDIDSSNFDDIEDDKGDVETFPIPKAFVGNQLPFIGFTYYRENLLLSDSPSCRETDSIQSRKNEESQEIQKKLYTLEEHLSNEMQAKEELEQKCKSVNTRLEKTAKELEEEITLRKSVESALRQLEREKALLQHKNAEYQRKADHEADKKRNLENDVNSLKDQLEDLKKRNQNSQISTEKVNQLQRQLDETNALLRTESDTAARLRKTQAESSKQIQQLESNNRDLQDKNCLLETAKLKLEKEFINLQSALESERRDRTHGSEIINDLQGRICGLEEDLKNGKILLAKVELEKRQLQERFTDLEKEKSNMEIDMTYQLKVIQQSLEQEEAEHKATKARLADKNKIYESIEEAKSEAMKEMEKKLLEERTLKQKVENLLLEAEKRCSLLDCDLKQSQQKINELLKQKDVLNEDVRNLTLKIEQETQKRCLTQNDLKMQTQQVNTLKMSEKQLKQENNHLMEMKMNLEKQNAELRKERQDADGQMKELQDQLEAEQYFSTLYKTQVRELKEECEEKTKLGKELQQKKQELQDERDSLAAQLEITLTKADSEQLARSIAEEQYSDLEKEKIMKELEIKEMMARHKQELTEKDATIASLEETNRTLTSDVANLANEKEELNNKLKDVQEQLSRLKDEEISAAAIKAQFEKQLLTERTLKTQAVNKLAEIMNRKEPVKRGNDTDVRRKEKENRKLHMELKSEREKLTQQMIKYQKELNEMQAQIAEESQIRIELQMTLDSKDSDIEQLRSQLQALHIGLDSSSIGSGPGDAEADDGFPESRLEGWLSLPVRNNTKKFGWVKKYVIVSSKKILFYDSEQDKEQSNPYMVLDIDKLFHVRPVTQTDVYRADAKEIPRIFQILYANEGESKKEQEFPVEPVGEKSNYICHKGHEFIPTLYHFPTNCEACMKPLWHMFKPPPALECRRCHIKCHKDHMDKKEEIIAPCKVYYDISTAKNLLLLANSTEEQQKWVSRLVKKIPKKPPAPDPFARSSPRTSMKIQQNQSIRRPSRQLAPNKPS

Structure (SMILES)	Ki (ROCK2)	Ki (ROCK1)	Ratio (PKA/ROCK2) (PKA)
CC1(NC(=O)c2cccc(CNc3ncc(-c4ccnc(N)n4)c4c3CCO4)c2)CC1 [Example 22, 3-(((7-(2-Aminopyrimidin-4-yl)-2,3-dihydrofuro[3,2-c]pyridin-4-yl)amino)methyl)-N-(1-methylcyclopropyl)benzamide]	3 to 30 nM	3 to 30 nM	** (5≤ratio<10)
Nc1nccc(-c2cnc(NCc3cccc(C(=O)NCCCF)c3)c3c2OCC3)n1 [Example 29, 3-(((7-(2-Aminopyrimidin-4-yl)-2,3-dihydrofuro[3,2-c]pyridin-4-yl)amino)methyl)-N-(3-fluoropropyl)benzamide]	≤ 3 nM	≤ 3 nM	*** (ratio≥10)
CC1(CNC(=O)c2cccc(CNc3ncc(-c4ccnc(N)n4)c4c3CCO4)c2)CC1 [Example 30, 3-(((7-(2-Aminopyrimidin-4-yl)-2,3-dihydrofuro[3,2-c]pyridin-4-yl)amino)methyl)-N-((1-methylcyclopropyl)methyl)benzamide]	≤ 3 nM	≤ 3 nM	** (5≤ratio<10)
CC(C)(F)CNC(=O)c1cccc(CNc2ncc(-c3ccnc(N)n3)c3c2CCO3)c1 [Example 31, 3-(((7-(2-Aminopyrimidin-4-yl)-2,3-dihydrofuro[3,2-c]pyridin-4-yl)amino)methyl)-N-(2-fluoro-2-methylpropyl)benzamide]	≤ 3 nM	≤ 3 nM	*** (ratio≥10)
COC(C)(C)CCNC(=O)c1cccc(CNc2ncc(-c3ccnc(N)n3)c3c2CCO3)c1 [Example 36, 3-(((7-(2-Aminopyrimidin-4-yl)-2,3-dihydrofuro[3,2-c]pyridin-4-yl)amino)methyl)-N-(3-methoxy-3-methylbutyl)benzamide]	≤ 3 nM	≤ 3 nM	*** (ratio≥10)
Nc1nccc(-c2cnc(NCc3cccc(C(=O)N[C@@H]4C[C@@H]4F)c3)c3c2OCC3)n1 [Example 37, 3-(((7-(2-Aminopyrimidin-4-yl)-2,3-dihydrofuro[3,2-c]pyridin-4-yl)amino)methyl)-N-((1R,2S)-2-fluorocyclopropyl)benzamide]	≤ 3 nM	≤ 3 nM	*** (ratio≥10)
Nc1nccc(-c2cnc(NCc3cccc(C(=O)NCC4CCO4)c3)c3c2OCC3)n1 (stereo not drawn) [Example 38, 3-(((7-(2-Aminopyrimidin-4-yl)-2,3-dihydrofuro[3,2-c]pyridin-4-yl)amino)methyl)-N-(oxetan-2-ylmethyl)benzamide]	≤ 3 nM	≤ 3 nM	*** (ratio≥10)
CO[C@H]1C[C@H](CNC(=O)c2cccc(CNc3ncc(-c4ccnc(N)n4)c4c3CCO4)c2)C1 [Example 39, 3-(((7-(2-Aminopyrimidin-4-yl)-2,3-dihydrofuro[3,2-c]pyridin-4-yl)amino)methyl)-N-(((1R,3R)-3-methoxycyclobutyl)methyl)benzamide]	≤ 3 nM	≤ 3 nM	*** (ratio≥10)
CCCNC(=O)c1cccc(CNc2ncc(-c3ccnc(N)n3)c3c2CCO3)c1 [Example 40, 3-(((7-(2-Aminopyrimidin-4-yl)-2,3-dihydrofuro[3,2-c]pyridin-4-yl)amino)methyl)-N-propylbenzamide]	≤ 3 nM	≤ 3 nM	*** (ratio≥10)

The remaining lines, values ahead:

Ki (ROCK2)	Ki (ROCK1)	Ratio (PKA/ROCK2) (PKA)	Structure (SMILES)
≤ 3 nM	≤ 3 nM	*** (ratio≥10)	Nc1nccc(-c2cnc(NCc3cccc(C(=O)NCCCN4CCOCC4)c3)c3c2OCC3)n1 [Example 16, 3-(((7-(2-Aminopyrimidin-4-yl)-2,3-dihydrofuro[3,2-c]pyridin-4-yl)amino)methyl)-N-(3-morpholinopropyl)benzamide]
≤ 3 nM	≤ 3 nM	*** (ratio≥10)	CC(C)(O)CNC(=O)c1cccc(CNc2ncc(-c3ccnc(N)n3)c3c2CCO3)c1 [Example 17, 3-(((7-(2-Aminopyrimidin-4-yl)-2,3-dihydrofuro[3,2-c]pyridin-4-yl)amino)methyl)-N-(2-hydroxy-2-methylpropyl)benzamide]
≤ 3 nM	≤ 3 nM	*** (ratio≥10)	CO[C@H]1C[C@@H](NC(=O)c2cccc(CNc3ncc(-c4ccnc(N)n4)c4c3CCO4)c2)C1 [Example 18, 3-(((7-(2-aminopyrimidin-4-yl)-2,3-dihydrofuro[3,2-c]pyridin-4-yl)amino)methyl)-N-((1s,3s)-3-methoxycyclobutyl)benzamide]
≤ 3 nM	≤ 3 nM	*** (ratio≥10)	C[C@@H]1CCC[C@H](C)N1CCNC(=O)c1cccc(CNc2ncc(-c3ccnc(N)n3)c3c2CCO3)c1 [Example 19, 3-(((7-(2-Aminopyrimidin-4-yl)-2,3-dihydrofuro[3,2-c]pyridin-4-yl)amino)methyl)-N-(2-((2R,6S)-2,6-dimethylpiperidin-1-yl)ethyl)benzamide]
≤ 3 nM	≤ 3 nM	*** (ratio≥10)	CCOCCNC(=O)c1cccc(CNc2ncc(-c3ccnc(N)n3)c3c2CCO3)c1 [Example 20, 3-(((7-(2-Aminopyrimidin-4-yl)-2,3-dihydrofuro[3,2-c]pyridin-4-yl)amino)methyl)-N-(2-ethoxyethyl)benzamide]
≤ 3 nM	3 to 30 nM	*** (ratio≥10)	CNC(=O)c1cccc(CNc2ncc(-c3ccnc(N)n3)c3c2CCO3)c1 [Example 21, 3-(((7-(2-Aminopyrimidin-4-yl)-2,3-dihydrofuro[3,2-c]pyridin-4-yl)amino)methyl)-N-methylbenzamide]
≤ 3 nM	≤ 3 nM	*** (ratio≥10)	Nc1nccc(-c2cnc(NCc3cccc(C(=O)N[C@H]4[C@@H]5COC[C@@H]54)c3)c3c2OCC3)n1 [Example 23, 3-(((7-(2-Aminopyrimidin-4-yl)-2,3-dihydrofuro[3,2-c]pyridin-4-yl)amino)methyl)-N-((1R,5S,6r)-3-oxabicyclo[3.1.0]hexan-6-yl)benzamide]
≤ 3 nM	≤ 3 nM	*** (ratio≥10)	Nc1nccc(-c2cnc(NCc3cccc(C(=O)NC4CN(C5COC5)C4)c3)c3c2OCC3)n1 [Example 24, 3-(((7-(2-aminopyrimidin-4-yl)-2,3-dihydrofuro[3,2-c]pyridin-4-yl)amino)methyl)-N-(1-(oxetan-3-yl)azetidin-3-yl)benzamide]
≤ 3 nM	≤ 3 nM	*** (ratio≥10)	Nc1nccc(-c2cnc(NCc3cccc(C(=O)NCC4CC4)c3)c3c2OCC3)n1 [Example 25, 3-(((7-(2-Aminopyrimidin-4-yl)-2,3-dihydrofuro[3,2-c]pyridin-4-yl)amino)methyl)-N-(cyclopropylmethyl)benzamide]
≤ 3 nM	≤ 3 nM	*** (ratio≥10)	Nc1nccc(-c2cnc(NCc3cccc(C(=O)N[C@H]4C[C@@H](OC(F)F)C4)c3)c3c2OCC3)n1 [Example 26, 3-(((7-(2-aminopyrimidin-4-yl)-2,3-dihydrofuro[3,2-c]pyridin-4-yl)amino)methyl)-N-((1s,3s)-3-(difluoromethoxy)cyclobutyl)benzamide]
≤ 3 nM	≤ 3 nM	*** (ratio≥10)	COC(C)(C)CNC(=O)c1cccc(CNc2ncc(-c3ccnc(N)n3)c3c2CCO3)c1 [Example 27, 3-(((7-(2-Aminopyrimidin-4-yl)-2,3-dihydrofuro[3,2-c]pyridin-4-yl)amino)methyl)-N-(2-methoxy-2-methylpropyl)benzamide]
≤ 3 nM	3 to 30 nM	*** (ratio≥10)	COCC1(CNC(=O)c2cccc(CNc3ncc(-c4ccnc(N)n4)c4c3CCO4)c2)CC1 [Example 28, 3-(((7-(2-Aminopyrimidin-4-yl)-2,3-dihydrofuro[3,2-c]pyridin-4-yl)amino)methyl)-N-((1-(methoxymethyl)cyclopropyl)methyl)benzamide]
